Literature values as cited in article PMC11187573, “Identification of SARS-CoV-2 Mpro inhibitors through deep reinforcement learning for de novo drug design and computational chemistry approaches” (RSC Medicinal Chemistry, 2024).

Test system: SARS, SARS-CoV-2 and MERS Mpro
Settings: Origin COVID_Moonshot; ref COVID Moonshot; cited from earlier work

Structure (SMILES)	IC50 [nM]
Cc1ccccc1NC(=O)CC1SC(=O)N(c2ccccc2)C1=O (centres unmarked) [LON-WEI-4d77710c-75, Cc(cccc1)c1NC(CC(C(N1c2ccccc2)=O)SC1=O)=O]	443
COc1ccc2c(c1)CN(C(=O)CCl)C(c1ccccc1)C2 (centres unmarked) [NAU-LAT-64f4b287-4, COc1cc(CN(C(C2)c3ccccc3)C(CCl)=O)c2cc1]	3740
O=C(CCl)N1CCN(S(=O)(=O)c2cccs2)CC1 [LON-WEI-8f408cad-3, O=C(CCl)N(CC1)CCN1S(c1cccs1)(=O)=O]	2160
O=C(CCl)N1CCN(Cc2cc(Cl)cc(Cl)c2)CC1 [PAU-UNI-8cdd41c7-1, O=C(CCl)N1CCN(Cc2cc(Cl)cc(Cl)c2)CC1]	1890
Cc1ccncc1NC(=O)Cc1cc(Cl)cc(OC2CC(=O)N2)c1 (centres unmarked) [TRY-UNI-2eddb1ff-7, Cc(ccnc1)c1NC(Cc1cc(Cl)cc(OC(C2)NC2=O)c1)=O]	3610
O=C(Nc1cccnc1)N(CCC1CCCCC1)c1cccc(Cl)c1 [JOR-UNI-2fc98d0b-12, O=C(Nc1cnccc1)N(CCC1CCCCC1)c1cccc(Cl)c1]	3060
N#Cc1cc(CN2CCN(C(=O)CCl)CC2)c2ccccc2c1 [DAR-DIA-fb20be43-6, N#Cc1cc2ccccc2c(CN(CC2)CCN2C(CCl)=O)c1]	4610
COCc1cc(Cl)cc(CN2CCN(C(=O)CCl)CC2)c1 [MED-COV-4280ac29-33, COCc1cc(CN(CC2)CCN2C(CCl)=O)cc(Cl)c1]	4770
O=S(=O)(Nc1ccccc1SCc1cccc(Cl)c1F)c1cc(Cl)sc1Cl [LON-WEI-4d77710c-64, O=S(c(cc(s1)Cl)c1Cl)(Nc(cccc1)c1SCc1cccc(Cl)c1F)=O]	2230
COCCc1ccc(Cl)cc1CN1CCN(C(=O)CCl)CC1 [MED-COV-4280ac29-37, COCCc(cc1)c(CN(CC2)CCN2C(CCl)=O)cc1Cl]	2200
NS(=O)(=O)CCc1ccccc1CN1CCN(C(=O)CCl)CC1 [MIH-UNI-e573136b-5, NS(CCc1c(CN(CC2)CCN2C(CCl)=O)cccc1)(=O)=O]	2720
O=C(CCl)N1CC2CC1CN2Cc1cccc(Cl)c1 (centres unmarked) [DAN-LON-a5fc619e-8, O=C(CCl)N1C(C2)CN(Cc3cccc(Cl)c3)C2C1]	2170
O=C(NCc1ccc2c(c1)OCO2)c1nc(S(=O)(=O)Cc2ccccc2)ncc1Cl [LON-WEI-4d77710c-10, O=C(c(nc(nc1)S(Cc2ccccc2)(=O)=O)c1Cl)NCc(cc1)cc2c1OCO2]	1400
COc1ccc(C2CC(c3ccccc3)=NN2C(=O)CCl)cc1OC (centres unmarked) [MED-COV-4280ac29-30, COc(ccc(C(C1)N(C(CCl)=O)N=C1c1ccccc1)c1)c1OC]	543
CC(C)C[C@@H]1CN(C(=O)CCl)CCN1Cc1cccc(Cl)c1 [DAN-LON-a5fc619e-3, CC(C)C[C@H](C1)N(Cc2cccc(Cl)c2)CCN1C(CCl)=O]	784
Cc1cccc(C2CN(C(=O)CCl)Cc3ccccc32)c1 (centres unmarked) [NIR-THE-c331be7a-6, Cc1cccc(C(CN(C2)C(CCl)=O)c3c2cccc3)c1]	2000
O=C(CCl)N1CCN(Cc2cccc(Cl)c2)CC1 [MED-COV-4280ac29-15, O=C(CCl)N1CCN(Cc2cccc(Cl)c2)CC1]	2840
O=C(CCl)N1CCN(Cc2ccsc2)CC1 [LON-WEI-8f408cad-7, O=C(CCl)N1CCN(Cc2cscc2)CC1]	3500
CS(=O)(=O)c1ncc(Cl)c(C(=O)Nc2ccccc2Cc2ccccc2)n1 [LON-WEI-ff7b210a-4, CS(c(nc1)nc(C(Nc2c(Cc3ccccc3)cccc2)=O)c1Cl)(=O)=O]	503

Same assay, conditions: Origin ChEMBL; ref ChEMBL; cited from earlier work

Structure (SMILES)	IC50 [nM]
O=C1C(=O)N(Cc2cc3ccccc3s2)c2ccc(F)cc21 [CHEMBL187598, O=C(c(cc(cc1)F)c1N1Cc2cc(cccc3)c3s2)C1=O]	4820
O=C1C(=O)N(Cc2cc3ccccc3s2)c2ccc(I)cc21 [CHEMBL190743, O=C(c(cc(cc1)I)c1N1Cc2cc(cccc3)c3s2)C1=O]	950
O=C1C=Cc2cc(Br)ccc2C1=O [CHEMBL4303595, O=C(C=Cc1c2ccc(Br)c1)C2=O]	100
C[C@@H]1O[C@@H](Oc2c(-c3cc(O)c(O)c(O)c3)oc3cc(O)cc(O)c3c2=O)[C@@H](O)[C@H](O)[C@H]1O [CHEMBL4303331, C[C@@H]([C@@H]([C@H]([C@@H]1O)O)O)O[C@H]1OC1=C(c(cc2O)cc(O)c2O)Oc(cc(cc2O)O)c2C1=O]	3660
C[C@@](Cc1ccc(O)c(O)c1)(NN)C(=O)O [CHEMBL1201236, C[C@](Cc(cc1)cc(O)c1O)(C(O)=O)NN]	3550
Cc1c(OCC(F)(F)F)ccnc1C[S+]([O-])c1nc2ccccc2[nH]1 (centres unmarked) [CHEMBL480, Cc(c(C[S+](c1nc(cccc2)c2[nH]1)[O-])ncc1)c1OCC(F)(F)F]	995
O=c1cc(-c2ccc(O)cc2)oc2cc(O)cc(O)c12 [CHEMBL28, Oc(cc1)ccc1C(Oc1c2c(O)cc(O)c1)=CC2=O]	3020
CC(C)(C)c1ccc(S(=O)(=O)/C=C/C#N)cc1 [CHEMBL270299, CC(C)(C)c(cc1)ccc1S(/C=C/C#N)(=O)=O]	840
CN(C)C(=S)SSC(=S)N(C)C [CHEMBL120563, CN(C)C(SSC(N(C)C)=S)=S]	50
CCc1ccc(/C=C/C(=O)Nc2ccc(C(C)=O)cc2)o1 [CHEMBL4303618, CCc1ccc(/C=C/C(Nc(cc2)ccc2C(C)=O)=O)o1]	4950
COc1ccc2[nH]c([S+]([O-])Cc3ncc(C)c(OC)c3C)nc2n1 (centres unmarked) [CHEMBL1475252, Cc1cnc(C[S+](c2nc(nc(cc3)OC)c3[nH]2)[O-])c(C)c1OC]	970
O=C1C(=O)N(Cc2cc3ccccc3s2)c2c(Br)cccc21 [CHEMBL365134, O=C(c1cccc(Br)c1N1Cc2cc(cccc3)c3s2)C1=O]	980
C[N+]1(C)CCC(OC(=O)C(c2ccccc2)c2ccccc2)CC1 [CHEMBL168067, C[N+](C)(CC1)CCC1OC(C(c1ccccc1)c1ccccc1)=O]	2360
Cc1ccc(S(=O)(=O)/C=C/C#N)cc1 [CHEMBL403183, Cc(cc1)ccc1S(/C=C/C#N)(=O)=O]	820
O=C(O)CCCCCCCCCCCCCCc1ccc(I)cc1 [CHEMBL128251]	2250
Sc1nnc(Nc2ccccc2)s1 [CHEMBL289356, Sc1nnc(Nc2ccccc2)s1]	390
Oc1cc2c(cc1C(c1ccc(C(F)(F)F)cc1)N1CCOCC1)OCO2 (centres unmarked) [CHEMBL3797437, Oc1c(C(c2ccc(C(F)(F)F)cc2)N2CCOCC2)cc2OCOc2c1]	540
O=c1cc(-c2ccccc2)oc2cc(O)c(O)c(O)c12 [CHEMBL8260, Oc(cc(c1c2O)OC(c3ccccc3)=CC1=O)c2O]	20
CNC(=O)ON(C(C)=O)C(=O)NC [CHEMBL9116, CC(N(C(NC)=O)OC(NC)=O)=O]	1330
COc1cccc(C(=O)CCN[C@@H](C)[C@H](O)c2ccccc2)c1 [CHEMBL2354521, C[C@@H]([C@@H](c1ccccc1)O)NCCC(c1cc(OC)ccc1)=O]	2350

Structure (SMILES)	IC50 [nM]
Nc1nc(S)c2ncn(C3OC(CO)C(O)C3O)c2n1 (centres unmarked) [CHEMBL119171, Nc(nc1S)nc2c1ncn2C(C1O)OC(CO)C1O]	1080
CCOc1cc(C(Nc2cc(C)ccn2)c2ccc3cccnc3c2O)ccc1OC (centres unmarked) [CHEMBL1397952, CCOc(cc(C(c(ccc1cccnc11)c1O)Nc1nccc(C)c1)cc1)c1OC]	270
Oc1ccc2ccccc2c1SSc1c(O)ccc2ccccc12 [CHEMBL472940, Oc(ccc1ccccc11)c1SSc(c1ccccc1cc1)c1O]	510
CCN1CCN(C(c2ccc(C(F)(F)F)cc2)c2ccc3cccnc3c2O)CC1 (centres unmarked) [CHEMBL1422849, CCN(CC1)CCN1C(c1ccc(C(F)(F)F)cc1)c(ccc1cccnc11)c1O]	150
Oc1cc(CNC(=S)/C=C/c2cc(O)c(O)c(Br)c2)cc(O)c1O [CHEMBL4303361, Oc1cc(CNC(/C=C/c(cc2O)cc(Br)c2O)=S)cc(O)c1O]	480
COCCCOc1ccnc(C[S+]([O-])c2nc3ccccc3[nH]2)c1C (centres unmarked) [CHEMBL1200930, Cc(c(C[S+](c1nc(cccc2)c2[n-]1)[O-])ncc1)c1OCCCOC]	740
C[n+]1c2cc(N)ccc2cc2ccc(N)cc21 [CHEMBL354349, C[n+](c1c2)c(cc(cc3)N)c3cc1ccc2N]	3460
CC(C)N(CCC(=O)c1ccc2ccccc2c1)Cc1ccccc1 [CHEMBL596674, CC(C)N(CCC(c1cc2ccccc2cc1)=O)Cc1ccccc1]	580
Cc1ccccc1N(C)C(=O)c1ccc([S+]([O-])c2nccs2)c([N+](=O)[O-])c1 (centres unmarked) [CHEMBL4303376, Cc(cccc1)c1N(C)C(c(cc1)cc([N+]([O-])=O)c1[S+](c1nccs1)[O-])=O]	1870
O=C(c1ccc(/C=C/c2n[nH]c3ccccc23)cc1)N1CCNCC1 [CHEMBL1908397, O=C(c1ccc(/C=C/c2n[nH]c3c2cccc3)cc1)N1CCNCC1]	3600
Cc1ccc(S(=O)(=O)N[C@@H](Cc2ccccc2)C(=O)CCl)cc1 [CHEMBL60718, Cc(cc1)ccc1S(N[C@@H](Cc1ccccc1)C(CCl)=O)(=O)=O]	1370
O=[N+]([O-])c1ccc(Sc2cccc[n+]2[O-])c2nonc12 [CHEMBL505670, [O-][N+](c(c1nonc11)ccc1Sc(cccc1)[n+]1[O-])=O]	100
O=C1C(=O)N(Cc2ccc3ccccc3c2)c2ccc(I)cc21 [CHEMBL383725, O=C(c(cc(cc1)I)c1N1Cc2cc3ccccc3cc2)C1=O]	1100
NC(=O)c1ccc2c(c1)C(=O)C(=O)N2Cc1ccc2ccccc2c1 [CHEMBL358279, NC(c(cc1)cc(C2=O)c1N(Cc1cc3ccccc3cc1)C2=O)=O]	245
O=C1C=CC(=O)C2=C1C1c3ccccc3C2c2ccccc21 [CHEMBL1474701, O=C(C=C1)C(C(c2c(C34)cccc2)c2c4cccc2)=C3C1=O]	240
N#CSc1cc(SC#N)c(N)nc1N [CHEMBL4303622, Nc(c(SC#N)c1)nc(N)c1SC#N]	1360
CN(C)CCNc1nc2cc(O)ccc2c2c1C(=O)c1ccccc1-2 [CHEMBL488755, CN(C)CCNc1nc2cc(O)ccc2c(-c2c3cccc2)c1C3=O]	2990
O=C(Oc1ccc(S(=O)(=O)c2ccc(OC(=O)C(Cl)=C(Cl)Cl)cc2)cc1)C(Cl)=C(Cl)Cl [CHEMBL212454, O=C(C(Cl)=C(Cl)Cl)Oc(cc1)ccc1S(c(cc1)ccc1OC(C(Cl)=C(Cl)Cl)=O)(=O)=O]	900
CCOC(=O)c1c(N)sc(-c2ccccc2)c1C [CHEMBL566136, CCOC(c1c(N)sc(-c2ccccc2)c1C)=O]	3190
Cc1cccc2c3c(ccc12)C1=C(C(=O)C3=O)[C@@H](C)CO1 [CHEMBL227075, C[C@@H]1C(C(C(c2c3ccc4c(C)cccc24)=O)=O)=C3OC1]	3050
